From patent publication US20230393140A1, “BINDING ASSAYS INVOLVING A PLURALITY OF SYNTHETIC COMPOUNDS, TARGETS, AND COUNTER TARGETS” (SRI International, priority 2020, published 2023)
Where two headings read alike, the source gives them in different places. Marks after values point to notes of the source that are not given here. Numbered stars: 1 amine (or outer) side, 2 acyl side, 3 side chain; on linkers, the order of the positions; unused ones are H or OH. Square brackets hold non-standard residues; d marks the D form. Peptide text beside a SMILES is read from it. * marks the point of attachment. 5FAM = O=C1OC2(c3ccc(O)cc3Oc3cc(O)ccc32)c2ccc(C(=O)*)cc21; NHCH2C6H4(4-CH2CONH2) = NC(=O)Cc1ccc(CN*)cc1; X1 = O=C(Cc1ccc(CN[*:1])cc1)[*:2]

Key:
[1] = target: T1, K-Ras (Homo sapiens, UniProt P01116, G12V); assay: MST binding affinity of resynthesized NNP hits to K-Ras
T1 construct: purchased Cytoskeleton Inc. CS-RS04
Protocol: Loading was performed according to the following protocol: The 200 μM stock solution of the target protein was diluted to 10 μM in 20 mM HEPES pH 8.0, 150 mM NaCl, 10 mM MgCl2, 1 mM TCEP, 0.05% Tween-20 (total volume 110 μL). 10 μL were set aside for later labeling quality control. EDTA pH 8.0 (stock concentration 10 mM) was added to the protein solution to a final concentration of 80 μM. GTP (stock concentration 50 mM) was added to the protein solution to a final concentration of 750 μM. The solution was incubated at 30° C. for 2 hours (PCR tube) and then placed on ice for 2 minutes. MgCl2 was added to the protein solution to a final concentration of 100 mM. The resulting protein solution was buffer exchanged into the buffer required in the labeling kit for labeling. […] All the other target molecules (TNFα, IL-6, IL-6R and ASGPR) were used as received without any additional treatment.
Hit binding affinity to various targets were determined using Microscale Thermophoresis (MST). MST experiments were performed on a Monolith NT.115pico (NanoTemper Technologies GmbH, Munich, Germany). Measurements were performed at room temperature, in triplicate with incubation periods of 15, 30 and 45 minutes. […] Targets were labeled using Nanotemper Monolith 2nd Generation Protein Labeling Kits. RED-MALEIMIDE (Maleimide-647-dye) labeling kit was used for K-Ras and RED-NHS (NHS-647-dye) labeling kit was used for IL-6, IL-6R, TNFα and ASGPR. The buffer for the ASGPR contained 20 mM HEPES pH 7.4, 150 mM NaCl, 10 mM MgCl2, 2 mM CaCl2, 0.05% Pluronic F-127, and 1 mM DTT; for IL-6 contained 20 mM HEPES pH 7.4, 150 mM KCl, 10 mM MgCl2, and 0.1% Pluronic F-127; for the soluble IL-6 receptor 20 mM HEPES pH 7.4, 150 mM NaCl, 10 mM MgCl2, and 0.05% Tween-20; for K-Ras 20 mM HEPES pH 7.4, 150 mM NaCl, 10 mM MgCl2, 0.05% Tween-20 and 1 mM DTT; for TNFα 10 mM HEPES pH 7.4, 150 mM NaCl, 10 mM MgCl2, 0.05% Polysorbate-20. Triplicate data was analyzed using MO.AffinityAnalysis software (NanoTemper Technologies GmbH).

[2] = target: T2, cRaf/K-Ras (G12V) PPI (Homo sapiens, UniProt P01116, G12V); assay: K-Ras-cRaf HTRF-based PPI profiling; type: biochemical; details: for HillSlope: curve fit of % binding, K-Ras G12V 30 nM, GST-cRaf 10 nM; for blank corrected HTRF: raw data, compounds without fluorescein;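 as to blank corrected HTRF: background is the signal of wells with all components except cRaf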
T2 construct: b-Kras G12V (GppNHp) (aa 2-169); biotin (b-
Protocol: In some experimental embodiments, a buffer was added to the assay wells which included […] HEPES pH 7.4, 150 mM NaCl, 5 mM MgCl2, 1 mM DTT, 0.005% NP40, and 1% DMSO. 5 uL of 3×K-Ras protein was then added to the assay wells, followed by the synthetic compounds which were added using acoustic technology (ECHO, Labcyte) followed by thirty minutes incubation at room temperature. Afterwards, 5 uL of 3×cRaf protein was added to the assay wells and 5 uL of detection mix was then added to the assay wells after 30 minutes. The detection mix included Mab anti-GST-Tb cryptate (Cisbio 61GSTTLB) and streptavidin-XL665 (Ex/Em=(337/665; 620) in PHERAstar (BMG Labtech)). HTRF signal was measured […] later.
The data includes raw data (signal-background without cRaf protein but with all other component), % binding (relative to DMSO controls), and curve fits. Curve fits were performed when the activities at the highest concentration of the synthetic compounds were less than 65%. Tables 18A-18B below includes the raw data (e.g., blank corrected HTRF) and Tables 19A-19B includes the % binding.

[3] = test system: biotinylated GST; assay: Interference check with biotinylated GST and detection mix
Text: Table 20 below provides an interference check on the synthetic compounds using biotinylated GST, which was used with the detection mix to check for compound effect on fluorescence.

[4] = K-Ras, compound with fluorescein on N-term, read-out: KD[nM] in MST (with fluorescein on N-term)
[5] = read-out: KD (nM) [95% conf. int], MST, NNP1 library hit, target K-Ras, one-site binding model

## CC(C)[C@H](NC(=O)[C@@H](Cc1ccc(O)cc1)NC(=O)[C@@H](Cc1c[nH]cn1)NC(=O)[C@H]1CCCN1C(=O)[C@@H](Cc1c[nH]c2ccccc12)NC(=O)c1ccc2c(c1)C(=O)OC21c2ccc(O)cc2Oc2cc(O)ccc21)C(=O)NCc1ccc(CC(=O)NCC(=O)N[C@@H](C(=O)N2CCC[C@@H]2C(=O)N[C@H](CCCNC(=N)N)C(=O)N[C@@H](C)C(=O)NCc2ccc(CC(=O)N3CCC[C@@H]3C(=O)N[C@H](CO)C(=O)N[C@H](CCC(=O)O)C(=O)N[C@H](CCCNC(=N)N)C(=O)NCC(=O)NCc3ccc(CC(=O)N4CCC[C@@H]4C(=O)N[C@H](CCCCN)C(=O)N[C@H](Cc4ccc(O)cc4)C(=O)N[C@H](CCCNC(=N)N)C(=O)N[C@@H](Cc4ccccc4)C(=O)NCc4ccc(CC(=O)N[C@H](CO)C(=O)N[C@H](CO)C(=O)NCC(=O)N[C@H](CC(N)=O)C(=O)N[C@@H](Cc5ccccc5)C(=O)NCc5ccc(CC(=O)NCC(=O)N[C@H](Cc6c[nH]c7ccccc67)C(=O)N[C@H](Cc6c[nH]cn6)C(=O)N[C@H](CCCNC(=N)N)C(=O)N[C@@H](C)C(=O)NCc6ccc(CC(N)=O)cc6)cc5)cc4)cc3)cc2)C(C)C)cc1 [KRAS-1-1] (5FAM-[dW][dP][dH][dY]V[X1]G[dV][dP][dR]A[X1][dP][dS][dE][dR]G[X1][dP][dK][dY][dR]F[X1][dS][dS]G[dN]F[X1]G[dW][dH][dR]A-{NHCH2C6H4(4-CH2CONH2)})
[1]; [4]
  Kd: 24 nM
[1]; [5]
  Kd: 24 nM
[2]
  HillSlope: −0.7155
[2]; conc. 1.00E−05
  blank corrected HTRF: 4849
[2]; conc. 1.11E−06
  blank corrected HTRF: 6589
[2]; conc. 1.23E−07
  blank corrected HTRF: 12756
[2]; conc. 1.37E−08
  blank corrected HTRF: 14500
[2]; conc. 3.33E−06
  blank corrected HTRF: 5282
[2]; conc. 3.70E−07
  blank corrected HTRF: 11981
[2]; conc. 4.12E−08
  blank corrected HTRF: 14675
[2]; conc. 5.08E−10
  blank corrected HTRF: 13672

## CC(C)C[C@H](NC(=O)[C@@H](CCC(=O)O)NC(=O)[C@@H](CCCNC(=N)N)NC(=O)[C@@H](CO)NC(=O)[C@H](NC(=O)Cc1ccc(CNC(=O)[C@H](C)NC(=O)[C@@H](CO)NC(=O)CNC(=O)[C@@H](CO)NC(=O)[C@H]2CCCN2C(=O)Cc2ccc(CNC(=O)[C@H](Cc3ccccc3)NC(=O)[C@@H](CCC(=O)O)NC(=O)[C@@H](Cc3c[nH]cn3)NC(=O)[C@H]3CCCN3C(=O)[C@@H](CO)NC(=O)c3ccc4c(c3)C(=O)OC43c4ccc(O)cc4Oc4cc(O)ccc43)cc2)cc1)[C@H](C)O)C(=O)NCc1ccc(CC(=O)N2CCC[C@@H]2C(=O)N[C@H](CCCCN)C(=O)N[C@H](Cc2ccc(O)cc2)C(=O)N[C@H](CCCNC(=N)N)C(=O)N[C@@H](Cc2ccccc2)C(=O)NCc2ccc(CC(=O)N[C@H](CCCNC(=N)N)C(=O)N[C@H](Cc3ccc(O)cc3)C(=O)N[C@@H](C(=O)N[C@H](CCC(=O)O)C(=O)N[C@@H](C)C(=O)NCc3ccc(CC(=O)NCC(=O)N[C@H](Cc4c[nH]c5ccccc45)C(=O)N[C@H](Cc4c[nH]cn4)C(=O)N[C@H](CCCNC(=N)N)C(=O)N[C@@H](C)C(=O)NCc4ccc(CC(N)=O)cc4)cc3)[C@H](C)O)cc2)cc1 [KRAS-1-6] (5FAM-[dS][dP][dH][dE]F[X1][dP][dS]G[dS]A[X1][dT][dS][dR][dE]L[X1][dP][dK][dY][dR]F[X1][dR][dY][dT][dE]A[X1]G[dW][dH][dR]A-{NHCH2C6H4(4-CH2CONH2)})
[3]; assay conc. 0.000508053 μM
  % signal compared to DMSO: 103.1%
[3]; assay conc. 0.001524158 μM
  % signal compared to DMSO: 102.7%
[3]; assay conc. 0.004572474 μM
  % signal compared to DMSO: 102.4%
[3]; assay conc. 0.013717421 μM
  % signal compared to DMSO: 102.5%
[3]; assay conc. 0.041152263 μM
  % signal compared to DMSO: 102.9%
[3]; assay conc. 0.12345679 μM
  % signal compared to DMSO: 100.3%
[3]; assay conc. 0.37037037 μM
  % signal compared to DMSO: 100.7%
[3]; assay conc. 1.111111111 μM
  % signal compared to DMSO: 89.85%
[3]; assay conc. 3.333333333 μM
  % signal compared to DMSO: 74.45%
[3]; assay conc. 19 μM
  % signal compared to DMSO: 62.03* %
[1]; [4]
  Kd: 21 nM
[1]; [5]
  Kd: 21 nM
[2]
  HillSlope: −0.8822
[2]; conc. 1.00E−05
  blank corrected HTRF: 3880
[2]; conc. 1.11E−06
  blank corrected HTRF: 9200
[2]; conc. 1.23E−07
  blank corrected HTRF: 13441
[2]; conc. 1.52E−09
  blank corrected HTRF: 13652
[2]; conc. 3.33E−06
  blank corrected HTRF: 5253
[2]; conc. 3.70E−07
  blank corrected HTRF: 11760
[2]; conc. 4.12E−08
  blank corrected HTRF: 13672

## CC(C)C[C@H](NC(=O)[C@@H](CCCNC(=N)N)NC(=O)[C@@H](CCCCN)NC(=O)[C@@H](CCC(=O)O)NC(=O)[C@@H](Cc1ccccc1)NC(=O)Cc1ccc(CNC(=O)[C@@H](NC(=O)[C@@H](Cc2ccc(O)cc2)NC(=O)[C@@H](Cc2c[nH]cn2)NC(=O)[C@H]2CCCN2C(=O)[C@@H](Cc2c[nH]c3ccccc23)NC(=O)c2ccc3c(c2)C(=O)OC32c3ccc(O)cc3Oc3cc(O)ccc32)C(C)C)cc1)C(=O)NCc1ccc(CC(=O)N2CCC[C@@H]2C(=O)N[C@H](CO)C(=O)N[C@H](CCC(=O)O)C(=O)N[C@H](CCCNC(=N)N)C(=O)NCC(=O)NCc2ccc(CC(=O)N3CCC[C@@H]3C(=O)N[C@H](CCCCN)C(=O)N[C@H](Cc3ccc(O)cc3)C(=O)N[C@H](CCCNC(=N)N)C(=O)N[C@@H](Cc3ccccc3)C(=O)NCc3ccc(CC(=O)N4CCC[C@@H]4C(=O)NCC(=O)N[C@H](CCCNC(=N)N)C(=O)N[C@H](Cc4c[nH]c5ccccc45)C(=O)NCC(=O)NCc4ccc(CC(=O)N[C@H](Cc5c[nH]cn5)C(=O)N[C@H](Cc5ccc(O)cc5)C(=O)N[C@H](CO)C(=O)N[C@H](CCC(=O)O)C(=O)N[C@@H](Cc5ccccc5)C(=O)NCc5ccc(CC(N)=O)cc5)cc4)cc3)cc2)cc1 [KRAS-1-15] (5FAM-[dW][dP][dH][dY]V[X1][dF][dE][dK][dR]L[X1][dP][dS][dE][dR]G[X1][dP][dK][dY][dR]F[X1][dP]G[dR][dW]G[X1][dH][dY][dS][dE]F-{NHCH2C6H4(4-CH2CONH2)})
[1]; [5]
  Kd: 180 nM
